Results as given in ChEMBL document CHEMBL1201862, “PubChem BioAssay data set” (2004).
Calls of active or inactive are those of the source.

Tests used:
[1] = target: Protein disulfide-isomerase (Homo sapiens, UniProt P07237); assay: PDI inhibitors, insulin aggregation turbidity, dose response, biochemical, absorbance, cherry-picked samples (AID 602350); assay type: functional
[2] = NIH-3T3 fibroblast cytotoxicity, dose response, cytotoxicity control, cell-based, fluorescence, Alamar Blue, secondary assay (AID 2327); assay type: functional;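 further: NIH-3T3 mouse fibroblasts cultured with fluconazole at 8 µg/mL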
[3] = tested on: Streptococcus sp. 'group A'; assay: growth inhibition of control SK(-) GAS strain, dose response, counter-screen for streptokinase expression inhibitor project, luminescence, kanamycin, BacTiterGlo, confirmation (AID 1900); assay type: functional, organism-based
Streptokinase A = target: T1, Streptokinase A (Streptococcus pyogenes serotype M1, UniProt P10520); assay: S. pyogenes streptokinase expression inhibitors, potency, dose response, plasminogen activation absorbance, OD405 (AID 1914); assay type: functional, Streptococcus pyogenes M1 GAS;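 further: secreted streptokinase activity via plasminogen activation per viability signal from cell pellet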
T1 sequence (P10520 whole entry): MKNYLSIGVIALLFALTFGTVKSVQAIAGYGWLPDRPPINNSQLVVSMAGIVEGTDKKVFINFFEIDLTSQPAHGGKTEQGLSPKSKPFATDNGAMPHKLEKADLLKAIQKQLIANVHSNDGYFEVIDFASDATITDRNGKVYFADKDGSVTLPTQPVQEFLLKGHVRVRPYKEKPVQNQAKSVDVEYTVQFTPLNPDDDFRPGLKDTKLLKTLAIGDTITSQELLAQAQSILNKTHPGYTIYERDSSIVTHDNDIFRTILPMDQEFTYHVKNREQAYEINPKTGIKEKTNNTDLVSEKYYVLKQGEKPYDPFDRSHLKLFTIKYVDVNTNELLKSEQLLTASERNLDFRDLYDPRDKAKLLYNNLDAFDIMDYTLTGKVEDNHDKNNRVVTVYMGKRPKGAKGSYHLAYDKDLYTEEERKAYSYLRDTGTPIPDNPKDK

[4] = C. albicans growth with fluconazole, confirmation, fluorescence, retest (AID 2467); assay type: functional, cell-based
Streptococcus = assay: Group A Streptococcus viability loss, dose response, counter-screen for streptokinase expression inhibitor project, luminescence, BacTiterGlo (AID 1915); assay type: functional, organism-based;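 further: potency for reduction of bacterial viability or growth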
Cysteine protease ATG4B = Cysteine protease ATG4B (Homo sapiens, UniProt Q9Y4P1); assay type: functional;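 further: Fluorescence-based dose-response confirmation assay measuring inhibition of ATG4B activity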
Phospholipase A2 = Phospholipase A2 (Homo sapiens, UniProt P04054); assay type: functional;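 further: confirmatory dose-response counterscreen on phospholipase A2, testing hits that came from an ultra-high-throughput screen for ATG4B inhibitors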
CHO = assay: cytotoxicity in TLR9-MyD88 CHO cells, dose response, cytotoxicity control for TLR9-MyD88 binding inhibitor project, cell-based, luminescence (AID 588339); assay type: functional, hamster; conditions: Cricetulus griseus;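 further: CHO cells stably coexpressing TLR9 and MyD88 fusions from primary screen; compound exposure lasted 48 hours before viability readout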
[5] = target: UDP-galactopyranose mutase (Mycobacterium tuberculosis, UniProt P9WIQ1); assay: Inhibitors of Mycobacterium tuberculosis UDP-galactopyranose mutase (UGM) enzyme Measured in Biochemical System Using Plate Reader - 2105-02_Inhibitor_Dose_CherryPick_Activity. [Related pubchem assays (depositor defined):AID504439]
Beta Lactamase = Beta Lactamase (Pseudomonas aeruginosa, UniProt Q932Y6); assay: beta-lactamase reporter inhibitor potency, dose response, artefact control for TLR9-MyD88 binding inhibitor project, BLA reporter cells, FRET fluorescence (AID 588341); assay type: cell-based;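 further: cell based assay in CHO-K1 cells stably expressing beta-lactamase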
CHO-K1 = assay: Counterscreen for antagonists of the orexin 1 receptor (OX1R; HCRTR1): Homogeneous time resolved fluorescence (HTRF)-based cell-based dose response assay to identify antagonists of the parental CHO-K1 cell line. [Related pubchem assays (depositor defined):AID434989, AID435008, AID463079, AID485270, AID492963, AID492964, AID492965, AID493232, AID504699, AID504701]; assay type: functional; conditions: Cricetulus griseus;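 further: potency for inhibition of ATP-stimulated IP1 production as antagonists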
[6] = Counterscreen for antagonists of the orexin 1 receptor (OX1R; HCRTR1): Fluorescence-based cell-based high throughput dose response assay to identify antagonists of the parental CHO cell line. [Related pubchem assays (depositor defined):AID434989, AID435008, AID463079, AID485270, AID492963, AID492964, AID492965, AID493232, AID504699, AID504701]; assay type: functional
[7] = target: T2, Orexin/Hypocretin receptor type 1 (Homo sapiens, UniProt O43613); assay: Homogeneous Time Resolved Fluorescence (HTRF)-based cell-based high throughput dose response assay for antagonists of the orexin 1 receptor (OX1R; HCRTR1). [Related pubchem assays (depositor defined):AID434989, AID435008, AID463079, AID485270, AID492963, AID492964, AID492965, AID493232, AID504717, AID504718]; assay type: functional
[8] = target: T2, Orexin/Hypocretin receptor type 1; assay: Fluorescence-based cell-based high throughput dose response assay for antagonists of the orexin 1 receptor (OX1R; HCRTR1). [Related pubchem assays (depositor defined):AID434989, AID435008, AID463079, AID485270, AID492963, AID492964, AID492965, AID493232, AID504717, AID504718]; assay type: functional
Orexin receptor type 2 [9] = target: T3, Orexin receptor type 2 (Homo sapiens, UniProt O43614); assay: Counterscreen assay for antagonists of the orexin 1 receptor (OX1R; HCRTR1): Fluorescence-based cell-based dose response assay for antagonists of the orexin 2 receptor (OX2R; HCRTR2), run by assay provider.; assay type: functional
Orexin receptor type 2 [10] = target: T3, Orexin receptor type 2; assay: Counterscreen assay for antagonists of the orexin 1 receptor (OX1R; HCRTR1): Homogeneous Time Resolved Fluorescence (HTRF)-based cell-based dose response assay for antagonists of the orexin 2 receptor (OX2R; HCRTR2), run by assay provider.; assay type: functional
[11] = target: T4, Voltage-gated N-type calcium channel alpha-1B subunit/Amyloid beta A4 precursor protein-binding family A member 1 (Homo sapiens, UniProt Q00975+Q02410); assay type: protein assay
[12] = target: T4, Voltage-gated N-type calcium channel alpha-1B subunit/Amyloid beta A4 precursor protein-binding family A member 1; assay type: protein assay; remark: listed apart in the source
[13] = target: Neurotensin receptor type 1 (Homo sapiens, UniProt P30989); assay type: functional;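 further: Image-based confirmatory dose-response assay measuring agonist activity at NTR1; NTR1-expressing U2OS osteosarcoma cells imaged for beta-arrestin GFP spot formation; agonist potency where compounds increase beta-arrestin recruitment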
[14] = target: T5, Carboxy-terminal domain RNA polymerase II polypeptide A small phosphatase 1 (Homo sapiens, UniProt Q9GZU7); assay: inhibitors of CTDSP1, concentration-response testing, biochemical assay, absorbance-based, actives from ultra-high-throughput screening (AID 540297); assay type: functional
T5 sequence (Q9GZU7 whole entry): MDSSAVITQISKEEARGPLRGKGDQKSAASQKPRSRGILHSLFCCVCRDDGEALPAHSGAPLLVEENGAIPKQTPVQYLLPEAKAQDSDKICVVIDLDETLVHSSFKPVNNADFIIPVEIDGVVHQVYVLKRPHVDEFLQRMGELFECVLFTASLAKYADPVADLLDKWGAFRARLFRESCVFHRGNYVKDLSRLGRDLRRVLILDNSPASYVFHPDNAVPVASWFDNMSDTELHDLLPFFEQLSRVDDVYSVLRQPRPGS

Melanocortin receptor 4 = Melanocortin receptor 4 (Homo sapiens, UniProt P32245); assay: MC4R antagonist potency on cAMP, dose response, cell-based, TR-FRET, biased antagonists (AID 602298); assay type: functional;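 further: antagonist potency against agonist-stimulated cAMP production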
[15] = nonselective inhibitors of cellular cAMP signaling, dose response, counter-screen for MC4R biased antagonist project, cell-based, TR-FRET cAMP detection (AID 602305); assay type: functional;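 further: U2OS cells stimulated with forskolin near its EC80 as the cAMP inducer; potency is for inhibition of forskolin-stimulated cAMP signaling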
[16] = target: T6, Histone-lysine N-methyltransferase NSD2 (Homo sapiens, UniProt O96028); assay type: biochemical
T6 sequence (O96028 whole entry): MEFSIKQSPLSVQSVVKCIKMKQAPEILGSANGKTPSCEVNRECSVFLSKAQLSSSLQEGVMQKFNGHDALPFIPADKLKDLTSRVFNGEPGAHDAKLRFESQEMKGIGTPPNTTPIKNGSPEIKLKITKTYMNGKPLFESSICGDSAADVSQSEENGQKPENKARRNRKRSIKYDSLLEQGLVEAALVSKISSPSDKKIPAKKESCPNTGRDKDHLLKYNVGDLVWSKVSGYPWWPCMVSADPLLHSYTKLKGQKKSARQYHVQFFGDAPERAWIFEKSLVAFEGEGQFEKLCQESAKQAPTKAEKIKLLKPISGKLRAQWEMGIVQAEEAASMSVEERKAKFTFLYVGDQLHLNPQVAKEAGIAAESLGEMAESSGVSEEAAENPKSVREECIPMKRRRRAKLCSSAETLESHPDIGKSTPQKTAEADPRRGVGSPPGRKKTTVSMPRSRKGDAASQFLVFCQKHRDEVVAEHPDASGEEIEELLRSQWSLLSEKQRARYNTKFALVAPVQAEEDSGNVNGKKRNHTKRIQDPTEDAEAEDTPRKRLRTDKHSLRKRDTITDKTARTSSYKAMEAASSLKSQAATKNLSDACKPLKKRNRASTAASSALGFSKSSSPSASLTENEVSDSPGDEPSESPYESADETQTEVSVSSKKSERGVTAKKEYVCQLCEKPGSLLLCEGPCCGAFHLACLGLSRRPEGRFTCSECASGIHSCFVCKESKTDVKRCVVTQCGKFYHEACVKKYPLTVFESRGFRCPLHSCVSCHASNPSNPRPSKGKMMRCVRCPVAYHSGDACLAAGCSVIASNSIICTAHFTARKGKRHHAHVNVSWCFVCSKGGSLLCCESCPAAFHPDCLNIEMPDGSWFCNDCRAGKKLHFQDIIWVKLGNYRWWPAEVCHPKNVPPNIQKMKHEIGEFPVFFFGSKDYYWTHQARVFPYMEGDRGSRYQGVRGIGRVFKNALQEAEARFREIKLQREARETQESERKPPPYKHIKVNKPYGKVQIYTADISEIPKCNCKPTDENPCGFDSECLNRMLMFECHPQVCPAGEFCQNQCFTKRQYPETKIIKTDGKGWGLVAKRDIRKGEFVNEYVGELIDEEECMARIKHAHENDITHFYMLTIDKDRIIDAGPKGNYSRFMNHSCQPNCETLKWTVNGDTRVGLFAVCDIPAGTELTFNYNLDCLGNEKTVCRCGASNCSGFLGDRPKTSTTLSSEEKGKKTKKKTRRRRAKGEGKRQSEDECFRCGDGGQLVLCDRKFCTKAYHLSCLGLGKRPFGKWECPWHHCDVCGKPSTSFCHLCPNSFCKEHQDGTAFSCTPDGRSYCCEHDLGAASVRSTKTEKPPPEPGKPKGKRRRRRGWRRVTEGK

[17] = Vero cell cytotoxicity, cytotoxicity control for M. tuberculosis inhibitor project, purified and synthesized samples, set 3 (AID 504684); assay type: functional
[18] = THP-1 cell cytotoxicity, cytotoxicity control, set 4 (AID 504911); assay type: functional; conditions: Mycobacterium tuberculosis
[19] = A Cell Based Secondary Assay to Explore Cytotoxicity in HepG2 Cells of Compounds that Modulate Mycobacterium tuberculosis in Media Containing Glycerol versus Media without Glycerol (2).; assay type: functional
[20] = THP-1 cell cytotoxicity, dose response, cytotoxicity control, set 3 (AID 504852); assay type: functional; conditions: Mycobacterium tuberculosis
[21] = Vero cell cytotoxicity, dose response, cytotoxicity control for M. tuberculosis growth inhibitor project, Vero cells, purified and synthesized compounds, set 4 (AID 504854); assay type: functional; conditions: Mycobacterium tuberculosis
[22] = target: Serine/threonine-protein kinase pim-1 (Homo sapiens, UniProt P11309); assay type: functional
[23] = target: Cell division cycle 7-related protein kinase (Homo sapiens, UniProt O00311); assay type: functional;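 further: value obtained from a kinome-wide kinase panel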
[24] = target: Homeodomain-interacting protein kinase 2 (Homo sapiens, UniProt Q9H2X6); assay type: functional;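 further: measured within a kinome-wide kinase profiling panel, HIPK2 being one panel member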
[25] = target: Interleukin-1 receptor-associated kinase 4 (Homo sapiens, UniProt Q9NWZ3); assay type: functional
[26] = target: Glycogen synthase kinase-3 beta (Homo sapiens, UniProt P49841); assay type: functional;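 further: value comes from a broad kinome profiling panel, with GSK3B as the panel member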
[27] = target: cAMP-dependent protein kinase catalytic subunit alpha (Homo sapiens, UniProt P17612); assay type: functional
[28] = target: Dual specificity protein kinase CLK4 (Homo sapiens, UniProt Q9HAZ1); assay type: functional
[29] = target: Mitogen-activated protein kinase kinase kinase kinase 4 (Homo sapiens, UniProt O95819); assay type: functional

T4 sequence (Q00975 whole entry): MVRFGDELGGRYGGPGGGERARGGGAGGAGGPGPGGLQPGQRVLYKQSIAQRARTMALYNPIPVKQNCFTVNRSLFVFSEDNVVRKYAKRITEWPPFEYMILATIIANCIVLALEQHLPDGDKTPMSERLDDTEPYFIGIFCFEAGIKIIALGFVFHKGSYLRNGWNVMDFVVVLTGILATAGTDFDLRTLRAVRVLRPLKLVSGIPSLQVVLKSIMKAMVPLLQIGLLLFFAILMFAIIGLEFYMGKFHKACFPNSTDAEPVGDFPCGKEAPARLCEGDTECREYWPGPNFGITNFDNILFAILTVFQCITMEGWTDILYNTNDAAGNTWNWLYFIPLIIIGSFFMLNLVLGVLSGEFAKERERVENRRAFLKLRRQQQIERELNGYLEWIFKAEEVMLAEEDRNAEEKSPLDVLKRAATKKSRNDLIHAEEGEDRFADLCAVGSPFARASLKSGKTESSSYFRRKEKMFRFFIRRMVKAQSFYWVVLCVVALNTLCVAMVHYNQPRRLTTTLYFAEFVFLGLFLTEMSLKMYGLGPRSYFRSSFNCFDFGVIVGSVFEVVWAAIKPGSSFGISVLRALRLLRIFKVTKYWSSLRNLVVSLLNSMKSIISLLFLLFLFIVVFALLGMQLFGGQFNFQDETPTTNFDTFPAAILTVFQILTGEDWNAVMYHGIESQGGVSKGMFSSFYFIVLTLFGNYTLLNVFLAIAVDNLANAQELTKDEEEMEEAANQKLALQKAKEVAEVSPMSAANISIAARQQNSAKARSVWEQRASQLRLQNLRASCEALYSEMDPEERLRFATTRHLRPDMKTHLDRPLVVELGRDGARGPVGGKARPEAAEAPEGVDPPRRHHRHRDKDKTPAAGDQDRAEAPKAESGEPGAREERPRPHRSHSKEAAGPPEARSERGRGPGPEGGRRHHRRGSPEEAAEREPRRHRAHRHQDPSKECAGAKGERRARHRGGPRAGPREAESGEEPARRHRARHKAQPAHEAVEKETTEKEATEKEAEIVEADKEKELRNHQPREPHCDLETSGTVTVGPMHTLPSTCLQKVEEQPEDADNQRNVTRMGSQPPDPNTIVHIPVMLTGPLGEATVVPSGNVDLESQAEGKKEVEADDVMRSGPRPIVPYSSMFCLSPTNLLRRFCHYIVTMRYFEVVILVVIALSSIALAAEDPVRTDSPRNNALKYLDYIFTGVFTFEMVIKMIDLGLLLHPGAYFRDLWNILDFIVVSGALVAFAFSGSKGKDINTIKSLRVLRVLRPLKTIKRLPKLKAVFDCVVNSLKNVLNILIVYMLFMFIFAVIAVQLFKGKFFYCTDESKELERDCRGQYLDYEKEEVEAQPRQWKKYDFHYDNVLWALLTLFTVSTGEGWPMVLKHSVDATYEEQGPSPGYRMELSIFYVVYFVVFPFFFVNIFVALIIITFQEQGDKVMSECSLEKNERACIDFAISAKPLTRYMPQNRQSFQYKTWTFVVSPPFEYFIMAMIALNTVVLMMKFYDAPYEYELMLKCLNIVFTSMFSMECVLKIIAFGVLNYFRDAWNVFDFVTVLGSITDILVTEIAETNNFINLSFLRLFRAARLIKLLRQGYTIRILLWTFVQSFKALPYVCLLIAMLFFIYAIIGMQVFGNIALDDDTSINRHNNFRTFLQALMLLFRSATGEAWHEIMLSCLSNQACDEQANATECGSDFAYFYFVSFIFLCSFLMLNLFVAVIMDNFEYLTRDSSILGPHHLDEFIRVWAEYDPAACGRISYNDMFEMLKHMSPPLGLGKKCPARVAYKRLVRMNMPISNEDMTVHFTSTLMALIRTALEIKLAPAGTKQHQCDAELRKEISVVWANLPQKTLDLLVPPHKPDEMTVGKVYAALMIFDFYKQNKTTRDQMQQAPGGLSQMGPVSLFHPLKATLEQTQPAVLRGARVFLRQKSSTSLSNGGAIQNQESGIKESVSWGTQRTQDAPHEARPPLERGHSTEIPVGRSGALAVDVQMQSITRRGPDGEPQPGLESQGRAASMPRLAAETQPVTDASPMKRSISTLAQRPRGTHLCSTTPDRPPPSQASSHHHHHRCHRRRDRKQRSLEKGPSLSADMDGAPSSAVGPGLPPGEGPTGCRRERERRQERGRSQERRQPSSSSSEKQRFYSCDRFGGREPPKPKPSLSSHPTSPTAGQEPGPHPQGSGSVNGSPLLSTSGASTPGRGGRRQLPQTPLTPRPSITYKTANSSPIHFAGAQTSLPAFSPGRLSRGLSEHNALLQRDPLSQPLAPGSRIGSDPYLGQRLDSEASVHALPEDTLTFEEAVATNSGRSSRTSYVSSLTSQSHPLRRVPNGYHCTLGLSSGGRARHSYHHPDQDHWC
T4 sequence (Q02410 whole entry): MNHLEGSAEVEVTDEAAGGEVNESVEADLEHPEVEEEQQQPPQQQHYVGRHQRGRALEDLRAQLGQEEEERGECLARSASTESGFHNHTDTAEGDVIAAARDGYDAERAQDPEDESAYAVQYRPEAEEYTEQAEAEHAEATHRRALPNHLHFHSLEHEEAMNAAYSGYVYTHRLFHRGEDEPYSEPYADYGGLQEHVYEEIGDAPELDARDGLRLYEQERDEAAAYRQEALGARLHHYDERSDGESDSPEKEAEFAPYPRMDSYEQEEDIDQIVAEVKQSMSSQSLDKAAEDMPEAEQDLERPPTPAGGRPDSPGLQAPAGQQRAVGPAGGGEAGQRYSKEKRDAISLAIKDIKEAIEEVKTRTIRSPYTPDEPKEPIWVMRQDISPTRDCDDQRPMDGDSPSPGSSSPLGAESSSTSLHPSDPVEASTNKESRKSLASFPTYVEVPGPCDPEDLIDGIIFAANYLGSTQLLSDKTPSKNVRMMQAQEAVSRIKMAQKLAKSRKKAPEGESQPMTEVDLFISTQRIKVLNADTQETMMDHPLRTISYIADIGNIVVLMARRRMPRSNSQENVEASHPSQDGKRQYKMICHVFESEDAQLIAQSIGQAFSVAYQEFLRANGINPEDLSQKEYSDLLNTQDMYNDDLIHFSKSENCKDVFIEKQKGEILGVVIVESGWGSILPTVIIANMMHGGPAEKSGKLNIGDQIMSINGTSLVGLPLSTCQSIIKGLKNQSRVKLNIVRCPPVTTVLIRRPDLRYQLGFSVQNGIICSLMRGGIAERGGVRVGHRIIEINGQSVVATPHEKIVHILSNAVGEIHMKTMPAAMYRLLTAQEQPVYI
T2 sequence (O43613 whole entry): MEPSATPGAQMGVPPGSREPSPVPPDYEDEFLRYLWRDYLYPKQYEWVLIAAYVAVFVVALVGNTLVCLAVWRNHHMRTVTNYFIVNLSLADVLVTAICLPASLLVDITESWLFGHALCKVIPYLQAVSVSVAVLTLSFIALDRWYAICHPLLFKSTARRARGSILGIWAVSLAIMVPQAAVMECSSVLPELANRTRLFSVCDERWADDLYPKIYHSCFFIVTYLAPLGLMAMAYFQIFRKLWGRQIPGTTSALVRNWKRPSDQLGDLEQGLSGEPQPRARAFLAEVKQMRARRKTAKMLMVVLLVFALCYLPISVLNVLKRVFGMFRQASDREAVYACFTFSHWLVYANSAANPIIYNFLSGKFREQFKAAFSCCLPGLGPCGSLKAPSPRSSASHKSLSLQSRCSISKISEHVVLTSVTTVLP
T3 sequence (O43614 whole entry): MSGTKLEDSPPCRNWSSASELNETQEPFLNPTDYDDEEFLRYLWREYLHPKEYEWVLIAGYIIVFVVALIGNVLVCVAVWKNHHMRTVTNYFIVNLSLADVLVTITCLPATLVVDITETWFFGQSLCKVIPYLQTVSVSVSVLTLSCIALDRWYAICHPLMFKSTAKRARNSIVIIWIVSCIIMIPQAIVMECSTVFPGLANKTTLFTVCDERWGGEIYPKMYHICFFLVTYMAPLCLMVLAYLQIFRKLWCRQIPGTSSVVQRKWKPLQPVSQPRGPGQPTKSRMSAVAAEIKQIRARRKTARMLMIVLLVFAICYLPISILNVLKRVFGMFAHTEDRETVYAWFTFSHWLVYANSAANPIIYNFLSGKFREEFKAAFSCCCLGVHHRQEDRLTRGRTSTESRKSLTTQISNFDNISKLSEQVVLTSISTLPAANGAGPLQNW
Neurotensin receptor type 1, sequence (P30989 whole entry, the tested form may be a part): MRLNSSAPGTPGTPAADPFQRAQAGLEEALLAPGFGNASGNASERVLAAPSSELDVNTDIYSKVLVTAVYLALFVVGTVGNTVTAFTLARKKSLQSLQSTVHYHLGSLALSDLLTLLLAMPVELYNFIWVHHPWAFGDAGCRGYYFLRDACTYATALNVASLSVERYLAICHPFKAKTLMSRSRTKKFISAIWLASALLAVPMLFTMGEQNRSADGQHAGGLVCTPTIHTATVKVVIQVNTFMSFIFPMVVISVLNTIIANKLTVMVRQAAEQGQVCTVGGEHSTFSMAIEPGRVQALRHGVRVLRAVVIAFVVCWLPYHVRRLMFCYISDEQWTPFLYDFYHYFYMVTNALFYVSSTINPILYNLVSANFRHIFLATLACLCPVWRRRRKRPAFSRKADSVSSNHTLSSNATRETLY
UDP-galactopyranose mutase, sequence (P9WIQ1 whole entry): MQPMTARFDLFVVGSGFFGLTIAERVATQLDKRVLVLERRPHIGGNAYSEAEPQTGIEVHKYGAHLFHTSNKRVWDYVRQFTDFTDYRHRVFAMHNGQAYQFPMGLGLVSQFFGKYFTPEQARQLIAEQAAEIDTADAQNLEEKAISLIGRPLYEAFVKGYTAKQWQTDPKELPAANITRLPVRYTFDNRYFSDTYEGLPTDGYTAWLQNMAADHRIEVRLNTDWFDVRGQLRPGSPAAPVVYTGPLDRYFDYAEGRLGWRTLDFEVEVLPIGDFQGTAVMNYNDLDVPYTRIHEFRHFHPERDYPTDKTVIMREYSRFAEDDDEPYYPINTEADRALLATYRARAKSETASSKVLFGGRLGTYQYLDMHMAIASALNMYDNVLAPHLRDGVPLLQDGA
Phospholipase A2, sequence (P04054 whole entry, the tested form may be a part): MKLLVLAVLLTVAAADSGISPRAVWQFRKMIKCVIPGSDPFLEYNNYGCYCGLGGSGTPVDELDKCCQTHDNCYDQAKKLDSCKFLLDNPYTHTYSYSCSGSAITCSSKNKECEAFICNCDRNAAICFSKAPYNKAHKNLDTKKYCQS

C/C=C(\C)C(=O)NCCN1C2=NC[C@H](Cc3ccc(O)cc3)N2C[C@H]1Cc1ccc(O)cc1
AC50 [1]: 15.4 µM (active)

O=C1NC(=O)/C(=C/c2ccccc2Oc2ccc(Cl)cc2)S1
EC50 [2]: > 160 µM (inactive)
EC50 [3]: 7.87 µM (active)
EC50 (Streptokinase A): > 50 µM (not active)
EC50 [4]: 5.01 µM (active)
EC50 (Streptococcus): 7.13 µM (active)
IC50 (Cysteine protease ATG4B): 9.09 µM (active)
IC50 (Phospholipase A2): 13.9 µM (active)

O=C(NCc1cccc(F)c1)c1cccc2c1C(=O)c1ccc(N3CCC(Cc4ccccc4)CC3)cc1S2(=O)=O
IC50 (CHO): > 49.8 µM (inactive)
AC50 [5]: 5.93 µM (active)
IC50 (Beta Lactamase): 3.21 µM (active)

Cc1ccc(/C=C2/Sc3ccccc3N(CC(=O)NCC3CCCO3)C2=O)cc1 (configuration not stated)
IC50 (CHO-K1): > 66.2 µM (inactive)
IC50 [6]: > 49.8 µM (inactive)
IC50 [7]: 1.77 µM (active)
IC50 [8]: 5.59 µM (active)
IC50 (Orexin receptor type 2 [9]): 29.8 µM (inactive)
IC50 (Orexin receptor type 2 [10]): > 50 µM (inactive)

O=C1NC(=O)C(=Cc2ccc(SC3CCCCC3)o2)C(=O)N1
IC50 [11]: 14.5 µM (active)
IC50 [12]: > 50 µM (inactive)
EC50 [13]: 12.7 µM (active)
IC50 [14]: 5.67 µM (active)
IC50 (Melanocortin receptor 4): > 21.5 µM (inactive)
IC50 [15]: > 64.6 µM (inactive)
AC50 [16]: > 20 µM (inactive)

CC1CCN(C(=O)C2CCN(c3nnc(-n4cccc4)s3)CC2)CC1
CC50 [17]: > 100 µM (active)
CC50 [18]: > 100 µM (active)
CC50 [19]: > 50 µM (active)
CC50 [20]: > 100 µM (active)
CC50 [21]: > 100 µM (active)

O=C1Nc2ccccc2Nc2cc(-c3ccncc3F)ccc21
Ki [22]: > 10 µM (inactive)
Ki [23]: 0.00398 µM (active)
Ki [24]: 0.631 µM (active)
Ki [25]: 1.58 µM (active)
Ki [26]: 0.158 µM (active)
Ki [27]: 1 µM (active)
Ki [28]: 0.0251 µM (active)
Ki [29]: 0.794 µM (active)
